We go through three compounds from patent US20060128726A1, “Process for preparing novel crystalline forms of (2S)-1-[[(7R)-7-(3,4-dichlorophenyl)-4,7-dihydro-5-methylpyrazolo[1,5]pyrimidine-6-yl]carbonyl]-2-(4-fluorophenyl)pyrrolidine, novel stable forms produced therein and formulations” (priority 2004, published 2006).

One data set is described as follows: aqueous solubility. The class given is physicochemical. As to conditions: water; depending on crystalline form.
The nature of data set [1]: solid-state stability (light, heat, physical and chemical). Type of data set: physicochemical.
For data set [2], the target named is ultrarapidly activating, sustained potassium current (IKur, also known as Kv1.5) (Homo sapiens, UniProt P22460). The conditions noted are these: cited from earlier work.
ultrarapidly activating, sustained potassium current (IKur, also known as Kv1.5), sequence (P22460 whole entry): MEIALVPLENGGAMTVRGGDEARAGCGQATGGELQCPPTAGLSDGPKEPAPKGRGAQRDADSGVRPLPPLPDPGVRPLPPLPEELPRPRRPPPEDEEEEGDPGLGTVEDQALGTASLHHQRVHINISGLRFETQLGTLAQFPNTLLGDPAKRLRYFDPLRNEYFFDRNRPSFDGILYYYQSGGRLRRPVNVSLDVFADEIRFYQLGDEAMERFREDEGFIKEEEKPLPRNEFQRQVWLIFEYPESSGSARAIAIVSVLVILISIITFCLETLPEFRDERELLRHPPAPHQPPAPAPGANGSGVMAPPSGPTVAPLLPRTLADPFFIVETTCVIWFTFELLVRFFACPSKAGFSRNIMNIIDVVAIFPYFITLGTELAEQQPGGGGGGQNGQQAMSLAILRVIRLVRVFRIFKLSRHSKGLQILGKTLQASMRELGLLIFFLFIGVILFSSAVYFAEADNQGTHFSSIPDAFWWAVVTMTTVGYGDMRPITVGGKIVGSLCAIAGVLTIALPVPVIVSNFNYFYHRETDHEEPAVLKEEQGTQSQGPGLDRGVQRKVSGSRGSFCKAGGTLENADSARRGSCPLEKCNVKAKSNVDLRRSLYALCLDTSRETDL
Data set [3] in a line: slurry conversion of polymorph mixtures (relative thermodynamic stability). As to conditions: mixtures of H2-1 and H2-2 in aqueous ethanol slurries; conversion observed at 5, 25, 50 and 80° C. Type of data set: physicochemical.
A short description of the next data set: hygroscopicity. Type of data set: physicochemical.
A further data set in a line: oral bioavailability. As to conditions: in vivo.

The structures appear in SMILES notation. Converted amounts (≈) assume the structure as drawn.

In general, solubility refers to the dissolved amount per volume that the medium holds. Read a low solubility as a poorly soluble substance. In turn, `CC1=C(C(=O)N2CCC[C@H]2c2ccc(F)cc2)[C@@H](c2ccc(Cl)c(Cl)c2)n2nccc2N1` [IKur compound, (2S)-1-[[(7R)-(3,4-dichlorophenyl)-4,7-dihydro-5-methylpyrazolo[1,5-]pyrimidine-6-yl]carbonyl]-2-(4-fluorophenyl)pyrrolidine] came in with a solubility in “aqueous solubility” of 2 to 4 µg/mL (≈ 4.24 to 8.49 µM). In addition, the “sensitivity to light and heat” value in data set [1] (amorphous form and crystalline forms) was “sensitive to light and heat”. Also, the “blocking of IKur (Kv1.5)” value in data set [2] is recorded as “selective blocker”.

As to `CC1=C(C(=O)N2CCC[C@H]2c2ccc(F)cc2)[C@@H](c2ccc(Cl)c(Cl)c2)n2nccc2N1` [H2-2 dihydrate], in data set [3], the “relative thermodynamic stability of polymorphs” value was “thermodynamically more stable than the H2-1 dihydrate”.

Consider `CC1=C(C(=O)N2CCC[C@H]2c2ccc(F)cc2)[C@@H](c2ccc(Cl)c(Cl)c2)n2nccc2N1` [N-3 anhydrate], for which the “solid-state stability (physical and chemical)” value in data set [1] is on record as “satisfactory solid-state stability”. Further, the hygroscopicity result in the data set “hygroscopicity” is reported as “low hygroscopicity”. The oral bioavailability result in the data set “oral bioavailability” is listed as “satisfactory oral bioavailability”.
